The values below come from patent publication US9580430B2, “9H-pyrimido[4,5-B]indoles and related analogs as BET bromodomain inhibitors” (THE REGENTS OF THE UNIVERSITY OF MICHIGAN, priority 2014, dated 2017).

Data set [1] relates to 5 prostate cancer and 1 benign prostate cell line. The data set can be described thus: Cell viability assay, panel of prostate cell lines (Cell-Titer GLO). It is filed as cell-based. The conditions noted are these: three of the AR-signaling positive cells; FIG. 1. The procedure:
VCaP prostate cancer cells were grown in DMEM with Glutamax (Gibco), LNCaP, 22RV1, DU145 and PC3 prostate cancer cell lines were grown in RPMI 1640, all were supplemented with 10% FBS (Invitrogen) in 5% CO2 cell culture incubator. The immortalized benign prostate cell line RWPE-1 was grown in keratinocyte media with supplements (Lonza). All cell lines were tested and found to be free of mycoplasma contamination.
(§1) Cells were seeded in 96-well plates at 2000-10,000 cells/well (optimum density for growth) in a total volume of 100 μl media containing 10% FBS. Serially diluted compounds in 100 μl media were added to the cells 12 h later. Following 96 h. incubation, cell viability was assessed by Cell-Titer GLO (Promega). The values were normalized and IC50 was calculated using GraphPad Prism software. […] After 12 days cells were fixed with methanol, stained with crystal violet and photographed. For colorimetric assays, the stained wells were treated with 500 μl 10% acetic acid and the absorbance was measured at 560 nm using a spectrophotometer.

Another data set concerns AR-positive cells. The data set can be described thus: Long-term colony formation assay. Format: cell-based. The conditions noted are these: 100 nM, 12 days, FIG. 3. The protocol:
as §1

A further data set deals with PSA and ERG. The data set can be described thus: QRT-PCR and immunoblot of AR-target genes in VCaP. It is filed as cell-based. Conditions: VCaP cells; FIGS. 4 and 5. The procedure: (§2) Total RNA was isolated from cells using RNeasy Mini Kit (Qiagen) and cDNA was synthesized from 1,000 ng total RNA using SuperScript III First-Strand Synthesis SuperMix (Invitrogen). QPCRs were performed in duplicate or triplicate using Taqman assays (Applied Biosystems) or standard SYBR green reagents and protocols on a StepOnePlus Real-Time PCR system (Applied Biosystems). The target mRNA expression was quantified using ΔΔCt method and normalized to GAPDH expression. All primers were designed using Primer 3 (http://frodo.wi.mit.edu/primer3/) and synthesized by Integrated DNA Technologies (Coralville, Iowa).
(§3) For Western blot analysis, 200 ug total protein extract was boiled in sample buffer and 10-20 μg aliquots were separated by SDS-PAGE and transferred onto Polyvinylidene Difluoride membrane (GE Healthcare). The membrane was incubated for one hour in blocking buffer [Tris-buffered saline, 0.1% Tween (TBS-T), 5% nonfat dry milk] followed by incubation overnight at 4° C. with the primary antibody. Following a wash with TBS-T, the blot was incubated with horseradish peroxidase-conjugated secondary antibody and signals were visualized by enhanced chemiluminescence system as per manufacturer's protocol (GE Healthcare).
A general note: Immunoblotting shows a protein as a band on a membrane.

Another data set relates to AR-gene signature. Kind of data set: Gene expression array, GSEA of the AR target gene signature. It is filed as cell-based. Conditions: AR-positive cells; 500 nM, 24 h; FIG. 6. The procedure: (§4) Cells treated with only vehicle or 10 nM DHT served as controls. […] Expression profiling was performed using the Agilent Whole Human Genome Oligo Microarray (SantaClara, Calif.) according to the manufacturer's protocol. All samples were run in technical duplicates or quadruplets against control. Over- and under-expressed gene sets were generated by filtering to include only 2-fold average over- or underexpression (Log ratio with p<0.001) in all hybridizations.

For the next data set, the system named is MYC. Kind of data set: MYC levels in prostate cancer cells. The conditions noted are these: AR-positive cells sensitive to JQ1, not AR-negative cells. Format: cell-based. The protocol:
as §2, §3

The next data set deals with BRD4. Kind of data set: ChIP-seq of BRD4 in DHT-stimulated VCaP cells. Format: cell-based. The conditions noted are these: JQ1 500 nM, FIG. 20. The protocol:
The ChIP assays for BRD2, BRD3, BRD4, AR, RNA PolII, ERG and H3K27ac were performed using HighCell ChIP kit (Diagenode) according to manufacturer's protocol. […] Next, cells were cross-linked for 10 min. with 1% formaldehyde. […] Chromatin equivalent to 5×10^6 cells were used for ChIP using different antibodies. ChIP DNA was isolated (IPure Kit, Diagenode) from samples by incubation with the antibody at 4° C. overnight followed by wash and reversal of cross-linking. The ChIP-seq sample preparation for sequencing was performed according to the manufacturer's instructions (Illumina). […] A single A-base was added to fragment ends by Klenow fragment (3′ to 5′ exo minus; NEB) followed by ligation of Illumina adaptors (Quick ligase, NEB). The adaptor-modified DNA fragments were enriched by PCR using the Illumina Barcode primers and Phusion DNA polymerase (NEB). PCR products were size selected using 3% NuSieve agarose gels (Lonza) followed by gel extraction using QIAEX II reagents (QIAGEN). Libraries were quantified with the Bioanalyzer 2100 (Agilent) and sequenced on the Illumina HiSeq 2000 Sequencer (100 nucleotide read length).
For enrichment plots shown in FIGS. 17, 19 and 20, identified peaks for each sample are centered by peak summit and average coverage per million was counted within 1500 bp relative to the peak center.

Data set [2] is described as follows: Prostate histology and hormone measurement in mice. It is filed as in vivo. The procedure: Highly hormone responsive seminal vesicles attached to prostate were harvested from mice after four weeks of injection. Prostate were fixed in formalin solution and processed for sectioning. Standard H&E staining was achieved on the formalin fixed sections and were used to image the different lobes of the gland. To determine the testosterone levels, blood samples were collected by cardiac puncture from mice anesthetized with isoflurane. The serum was separated from the blood and stored at −80° C. until assayed. Serum testosterone levels were measured by the Ligand Assay at University of Michigan-ULAM Pathology Cores for Animal Research.

The test system of data set [3] is castration-resistant VCaP tumor xenografts. The data set can be described thus: Castration-resistant VCaP tumor xenograft (CRPC experiment). Format: in vivo. The conditions noted are these: castrated mice; 50 mg/kg, 5 days/week; FIG. 26. The protocol:
Four week-old male SCID C.B17 mice were procured from a breeding colony at University of Michigan. All procedures involving mice were approved by the University Committee on Use and Care of Animals (UCUCA) at the University of Michigan and conform to all regulatory standards. Mice were anesthetized using 2% Isoflurane (inhalation) and 2×10^6 VCaP prostate cancer cells suspended in 100 μl of PBS with 50% Matrigel (BD Biosciences) were implanted subcutaneously into the dorsal flank on both sides of the mice. […] Growth in tumor volume was recorded using digital calipers and tumor volumes were estimated using the formula (π/6) (L×W^2), where L=length of tumor and W=width. Loss of body weight during the course of the study was also monitored. At the end of the studies mice were sacrificed and tumors extracted and weighed. Additionally, femur bone marrow, liver and spleen were harvested to examine spontaneous metastasis by detecting human-Alu sequence. […] All procedures involving mice were approved by the University Committee on Use and Care of Animals (UCUCA) at the University of Michigan and conform to all regulatory standards.

In a further data set the test system is MYC signature. The data set can be described thus: Gene expression array, GSEA of MYC signature, VCaP. It is filed as cell-based. Conditions: VCaP after JQ1 treatment. The protocol: as §4

Consider `Cc1sc2c(c1C)C(c1ccc(Cl)cc1)=N[C@@H](CC(=O)OC(C)(C)C)c1nnc(C)n1-2` [JQ1], for which the “sensitivity of prostate cell lines” value in data set [1] is given as “sensitive”. Moreover, the long term colony-formation result with AR-positive cells is reported as “severely inhibited”. Also, in the data set on PSA and ERG, the “PSA and ERG mRNA and protein level” value was “dose-dependent decrease in PSA and ERG”. For the same compound, the “GSEA of AR-gene signature” value in the data set on AR-gene signature is “significantly repressed”. Further, the MYC levels result with MYC is given as “attenuated”. Moreover, the “DHT induced BRD4 recruitment to the AR-BRD4 shared loci” value in the data set with BRD4 was “almost completely abrogated”. The physiologic androgen-regulated processes entry in data set [2] is “No effect on physiologic androgen-regulated processes”. Besides, in [2], the testes size result is given as “reduced testes size”. Also, the “reduction in castration-resistant tumors” value in data set [3] stood at 50%. The NES is listed as −2.265 in the data set with MYC signature (gene set MYC_UP.V1_UP), −1.818 with MYC signature (gene set SCHLOSSER_MYC_AND_SERUM_RESPONSE_SYNERGY), −1.824 in the data set on MYC signature (gene set SCHLOSSER_MYC_TARGETS_AND_SERUM_RESPONSE_UP) and −2.275 with MYC signature (gene set SCHUHMACHER_MYC_TARGETS_UP).
